Test results reported in US20200316087A1, “NOVEL COMBINATION THERAPY FOR ANXIETY DISORDERS, EPILEPSY, AND PAIN” (priority 2017, published 2020).

What was measured:
[1] = system: motor performance on an inverted screen; test: Rat inverted screen test (motor impairment); details: rats
From the text: (§1) The motor effects of Diazepam and KRM-II-81 were studied on the inverted screen. The inverted screen test is used to measure whether or not a test compound induces muscle relaxation. When a test subject is placed on a wire screen which is then inverted, the reaction is to climb to the opposite side so they are no longer hanging upside down.
(§2) Male, Sprague Dawley rats (Harlan Sprague Dawley, Indianapolis, Ind.) were used and weighed 90-110 g when evaluated in experiments. […] Rats were placed onto the top of a wire screen, which was then inverted so that the rats were hanging upside down.
(§3) Male Sprague-Dawley rats (n=5) were dosed i.p. (vehicle=1% carboxymethyl cellulose) with diazepam (3, 10, or 30 mg/kg), KRM-II-81 (10, 30, or 60 mg/kg) or HZ-166 (30 mg/kg) 30 minutes prior to testing. Rats were placed onto the top of a wire screen, which was then inverted so that the rats were hanging upside down. […] Results were analyzed using ANOVA (Dunnett's test: *P<0.05).
(§4) For the in vivo assays, minimal effective doses (MED) were calculated in mg/kg. MED was defined as the lowest dose administered that produced statistically significant protection compared to vehicle control in the anticonvulsant assays. The MED, or minimal toxic dose (MTD) for motor impairment, was the minimal dose required to produce statistically-significant impairment in motor performance. Doses tested are shown in the figures and tables and are generally dosed in ½ log increments. The protective index (PT) was calculated at the MTD/MED.

[2] = Rat inverted screen test (motor impairment); details: male, Sprague-Dawley, rat, in vivo
From the text: as §1, §2, §3, §4

[3] = system: immobility in forced-swim test; test: Forced-swim assay; format: in vivo, mice; details: male NIH Swiss mice, i.p., 30 min prior
Procedure: Male NIH Swiss mice (Envigo, Indianapolis, Ind.) were studied. Mice were placed in clear plastic cylinders (diameter: 10 cm; height: 25 cm) filled with 6 cm of water (22-25° C.) for six min. […] The duration of immobility during the last four min of the six min test period was scored. A mouse was recorded as immobile when floating motionless or making only those movements necessary to keep its head above water.

PTZ seizure threshold = test: Pentylenetetrazole (PTZ, i.v.)-induced seizure threshold; format: in vivo, rats; details: for PTZ Threshold to Criteria: MED for producing ≥2× PTZ seizure threshold at baseline; for PTZ Threshold Poteny (MED): lowest dose with statistically significant effect, PTZ i.v.; for PTZ Threshold Poteny (MED) / effect on dose of PTZ required to induce convulsions: rats; for effect on dose of PTZ required to induce convulsions: PTZ i.v. infusion, pretreatment 30 min
Procedure: Male […] Sprague-Dawley rats (Indianapolis, Ind.) were randomly assigned to treatment groups and dosed with vehicle (vehicle=1% carboxymethyl cellulose) with diazepam (0.1, 0.3, or 1 mg/kg) or test compound (3, 10, 30, or 60 mg/kg) 30 minutes prior to testing. Rats were placed in a restrainer and a winged infusion needle was inserted into the lateral tail vein. Intravenous infusion with 10 mg/ml PTZ at a rate of 0.5 ml/min was initiated until a clonic convulsion occurred, and the time to clonic convulsion was recorded in sec or a maximum of 4 min was recorded. Following infusion, rats are euthanized. The dose of PTZ required to elicit a clonic convulsion was calculated using the infusion rate, concentration of PTZ, time to clonic convulsion, and animal weight.

PTZ-induced clonus = test: Pentylenetetrazole (PTZ, 35 mg/kg s.c.)-induced clonic convulsions; format: in vivo; details: rats; for PTZ Clonus to Criteria 1: MED producing maximal protection (0% seizures); for PTZ Clonus Potency (MED): lowest dose with statistically significant protection; for PTZ Clonus Potency (MED) / protection against PTZ-induced clonus: PTZ 35 mg/kg s.c.
Procedure: After the inverted screen test, the rats were dosed with pentylenetetrazole (PTZ)(35 mg/kg, s.c.) in a volume of 1 ml/kg and placed in an observation cage (40.6×20.3×15.2 cm) with a floor containing […] of wood chip bedding material. PTZ dose was determined to be ˜EC97 for producing clonic convulsions.

[4] = system: seizures in amygdala kindled rats; test: Basolateral amygdala kindling; format: in vivo; details: for After-Discharge Duration to Criteria: MED for producing after-discharge duration ≤30 sec; for After-Discharge Threshold to Criteria: MED for producing after-discharge threshold ≥3; for Seizure Severity to Criteria: MED for producing seizure severity score ≤2; for After-Discharge Duration Potency (MED) / After-Discharge Threshold Potency (MED) / Seizure Severity Poteny (MED) / effect on adjusted after-discharge threshold (ADT) / effect on after-discharge duration (ADD) / effect on seizure severity score / kindling measures / Seizure free scores (seizure severity=0): amygdala kindled rats; for Seizure free scores (seizure severity=0): groups of 8
Procedure: Seizure kindling models evaluate effects of drugs on the sensitization of the nervous system to seizure induction. In this test, drugs were evaluated for their ability to impact seizure parameters in rats that were fully kindled by daily electrical stimulation of their amygdala. Valproic acid was used as a positive control. Experiments were conducted using the general procedures of Zwart et al. (J. Pharmacol. Exp. Ther., 2014, 351:124-133). A bipolar electrode for electrical stimulation and EEG recording was stereotaxically implanted into one hemisphere of the basolateral amygdala (AP −2.2, ML −4.8, DV −8.5 mm, relative to bregma) of male Wistar rats. After post-operative recovery, electrical kindling begins, where a subthreshold constant current (400 μA, 1 ms, monophasic square-wave pulses, 60 Hz for 1 sec) is given once a day Monday-Friday for about 4-6 weeks until a rat is fully kindled. A fully kindled rat has experienced 10 consecutive stage 5 seizures or 10 of its last 12 were stage 5 according to the Racine Scale.
Twelve fully kindled rats were assigned to this study, and eight rats were selected and randomized to initial compound treatment groups from baseline after discharge threshold (ADT), seizure severity score, and after discharge duration (ADD). […] On test day, rats were dosed 30 min prior to beginning stimulation. After the pre-treatment, rats were stimulated using an ascending staircase sequence beginning at 10 μA and increasing in log unit steps of 10, 16, 25, 40, 65, 100, 160, 250, and 400 μA. Animals were stimulated until they were assigned a Seizure Severity Score for a visually observably seizure or they reached the 400 μA threshold limit. ADD was determined following testing. ADT was the current that induced a seizure; measurements were scale-adjusted to capture the stimulation scale change required to observe a seizure from the previous baseline to the ADT scored on test day. […] The average scale adjusted ADT was approximately 0.63 μA in vehicle treated rats.
Racine score of behavioral response to stimulation: 0=no behavioral response; 1=immobility, staring and/or facial clonus; 2=head nodding, jaw clonus, and/or tongue protrusion; 3=unilateral forelimb clonus; 4=bilateral forelimb clonus and/or rearing; 5=bilateral forelimb clonus with rearing and loss of balance.
After-Discharge Duration (ADD) is the duration of the first after-discharge.
ADT, ADD, and severity scores were analyzed by ANOVA. Seizure severity data was also analyzed by the nonparametric Skillings-Mack test, a generalization of the Friedman test for one-way repeated measures designs. Posthoc tests when reported were either by Dunnett's method (seizure severity) or using Wilcoxon sign rank tests (ADT and ADD). Valproic acid, used as a positive control was not used in ANOVA calculations.

C#Cc1ccc2c(c1)C(c1ccccn1)=NCc1c(-c3cnco3)ncn1-2 [KRM-II-81, 5-(8-ethynyl-6-(pyridin-2-yl)-4H-benzo[f]imidazo[1,5-a][1,4]diazepin-3-yl)oxazole]
muscle relaxation on inverted screen (result in words) ([1]; i.p., 30 min prior, KRM-II-81 10-60 mg/kg, HZ-166 30 mg/kg): Neither HZ-166 nor KRM-II-81 induced significant muscle relaxation | dose at which signs of muscle relaxation began to appear ([1]; i.p., inverted screen): 60 mg/kg | ED50 at 30 min ([2]; ip): 121 mg/kg | immobility in forced-swim assay [3]: moderate, dose-dependent decrease in immobility | PTZ Threshold to Criteria (PTZ seizure threshold): 30 mg/kg | PTZ Threshold Poteny (MED) (PTZ seizure threshold): 10 mg/kg | dose of PTZ required to induce convulsions (PTZ seizure threshold; pretreated with 10 mg/kg of KRM-II-81, vehicle baseline 35.1±1.2 mg/kg): 71 mg/kg | effect on dose of PTZ required to induce convulsions (PTZ seizure threshold): increased the dose of PTZ required to induce convulsions | PTZ Clonus to Criteria 1 (PTZ-induced clonus): 30 mg/kg | PTZ Clonus Potency (MED) (PTZ-induced clonus): 30 mg/kg | protection against PTZ-induced clonus (PTZ-induced clonus): fully prevented | After-Discharge Duration to Criteria [4]: 10 mg/kg | After-Discharge Threshold to Criteria [4]: 10 mg/kg | Seizure Severity to Criteria [4]: 10 mg/kg | After-Discharge Duration Potency (MED) [4]: 10 mg/kg | After-Discharge Threshold Potency (MED) [4]: 10 mg/kg | Seizure Severity Poteny (MED) [4]: 10 mg/kg | effect on adjusted after-discharge threshold (ADT) [4]: significantly increased | effect on after-discharge duration (ADD) [4]: significant decreases | effect on seizure severity score / kindling measures [4]: most efficacious and potent | Seizure free scores (seizure severity=0) [4]: 7/8

C#Cc1ccc2c(c1)C(c1ccccc1)=NCc1c(-c3cnco3)ncn1-2 [KRM-II-82, 5-(8-ethynyl-6-phenyl-4H-benzo[f]imidazo[1,5-a][1,4]diazepin-3-yl)oxazole]
effect on motor performance ([1]; up to 30 mg/kg, inverted screen): without significant effect on motor performance | MTD at 60 seconds ([2]; intraperitoneal): 150 mg/kg | immobility in forced-swim assay [3]: significantly decreased immobility time | PTZ Threshold to Criteria (PTZ seizure threshold): 30 mg/kg | PTZ Threshold Poteny (MED) (PTZ seizure threshold): 10 mg/kg | effect on dose of PTZ required to induce convulsions (PTZ seizure threshold): increased the dose of PTZ required to induce convulsions | PTZ Clonus to Criteria 1 (PTZ-induced clonus): 30 mg/kg | PTZ Clonus Potency (MED) (PTZ-induced clonus): 10 mg/kg | protection against PTZ-induced clonus (PTZ-induced clonus): dose-dependently suppressed | After-Discharge Duration to Criteria [4]: >30 mg/kg | After-Discharge Threshold to Criteria [4]: 30 mg/kg | Seizure Severity to Criteria [4]: >30 mg/kg | After-Discharge Duration Potency (MED) [4]: >30 mg/kg | After-Discharge Threshold Potency (MED) [4]: 10 mg/kg | Seizure Severity Poteny (MED) [4]: 10 mg/kg | effect on adjusted after-discharge threshold (ADT) [4]: significantly increased | effect on after-discharge duration (ADD) [4]: trend for a significant effect | effect on seizure severity score / kindling measures [4]: trend toward efficacy | Seizure free scores (seizure severity=0) [4]: 1/8
